Experimental data from patent US20150105252A1, “SUBSTITUTED PYRAZOLES AS HERBICIDES” (E I DU PONT DE NEMOURS AND COMPANY, priority 2013, published 2015).

Key:
bromegrass, downy = assay: Test C postemergence; type: in vivo, Bromus tectorum; details: for Bromegrass, Downy plant response rating: scale 0 to 100
Excerpt: (§1) Seeds of plant species selected from blackgrass (Alopecurus myosuroides), ryegrass, Italian (Italian ryegrass, Lolium multiflorum), wheat (winter wheat, Triticum aestivum), galium (catchweed bedstraw, Galium aparine), corn (Zea mays), crabgrass, large (large crabgrass, Digitaria sanguinalis), foxtail, giant (giant foxtail, Setaria faberii), johnsongrass (Sorghum halepense), lambsquarters (Chenopodium album), morningglory (Ipomoea coccinea), nutsedge, yellow (yellow nutsedge, Cyperus esculentus), pigweed (redroot pigweed, Amaranthus retroflexus), ragweed (common ragweed, Ambrosia elation), soybean (Glycine max), barnyardgrass (Echinochloa crus-galli), oilseed rape (Brassica napus), waterhemp (common waterhemp, Amaranthus rudis), oat, wild (wild oat, Avena fatua), kochia (Kochia scoparia), Surinam grass (Brachiaria decumbens), foxtail, green (green foxtail, Setaria viridis), goosegrass (Eleusine indica), bromegrass, downy (downy bromegrass, Bromus tectorum), nightshade (eastern black nightshade, Solanum ptycanthum), cocklebur (common cocklebur, Xanthium strumarium), cupgrass, woolly (woolly cupgrass, Eriochloa villosa), bermudagrass (Cynodon dactylon), sunflower, (common oilseed sunflower, Helianthus annuus), Russian thistle (Salsola kali), and velvetleaf (Abutilon theophrasti) were planted into a blend of loam soil and sand and treated preemergence with test chemicals formulated in a non-phytotoxic solvent mixture which included a surfactant.
(§2) At the same time, plants selected from these crop and weed species and also chickweed (common chickweed, Stellaria media), canarygrass (littleseed canarygrass, Phalaris minor), and deadnettle (henbit deadnettle, Lamium amplexicaule), were planted in pots containing Redi-Earth® planting medium (Scotts Company, 14111 Scottslawn Road, Marysville, Ohio 43041) comprising spaghnum peat moss, vermiculite, wetting agent and starter nutrients and treated with postemergence applications of test chemicals formulated in the same manner. Plants ranged in height from 2 to 18 cm (1- to 4-leaf stage) for postemergence treatments. Treated plants and controls were maintained in a greenhouse for 13 to 15 days, after which time all species were compared to controls and visually evaluated. Plant response ratings, summarized in Table C, are based on a scale of 0 to 100 where 0 is no effect and 100 is complete control. A dash (-) response means no test result.

cupgrass, woolly = assay: Test C postemergence; type: in vivo, Eriochloa villosa; details: for Cupgrass, Woolly plant response rating: scale 0 to 100
Excerpt: as §1, §2

goosegrass = assay: Test C postemergence; type: in vivo, Eleusine indica; details: for Goosegrass plant response rating: scale 0 to 100
Excerpt: as §1, §2

barley = assay: Test C postemergence; type: in vivo, Hordeum vulgare; details: scale 0 to 100, 0 no effect, 100 complete control
cocklebur = assay: Test C postemergence; type: in vivo, Xanthium strumarium; details: for Cocklebur plant response rating: scale 0 to 100
Excerpt: as §1, §2

Russian thistle = assay: Test D preemergence; type: in vivo, Salsola kali; details: for Plant response rating (scale 0 to 100), Russian Thistle: 16 g ai/ha, taken as preemergence; for Plant response rating, Russian Thistle: Preemergence, scale 0 to 100
Excerpt: Seeds of plant species selected from bluegrass (annual bluegrass, Poa annua), blackgrass (Alopecurus myosuroides), canarygrass (littleseed canarygrass, Phalaris minor), chickweed (common chickweed, Stellaria media), galium (catchweed bedstraw, Galium aparine), bromegrass, downy (downy bromegrass, Bromus tectorum), field poppy (Papaver rhoeas), field violet (Viola arvensis), foxtail, green (green foxtail, Setaria viridis), deadnettle (henbit deadnettle, Lamium amplexicaule), ryegrass, Italian (Italian ryegrass, Lolium multiflorum), kochia (Kochia scoparia), lambsquarters (Chenopodium album), oilseed rape (Brassica napus), pigweed (redroot pigweed, Amaranthus retroflexus), chamomile (scentless chamomile, Matricaria inodora), speedwell (bird's-eye speedwell, Veronica persica), barley, spring (spring barley, Hordeum vulgare), wheat, spring (spring wheat, Triticum aestivum), buckwheat, wild (wild buckwheat, Polygonum convolvulus), mustard, wild (wild mustard, Sinapis arvensis), oat, wild (wild oat, Avena fatua), radish, wild (wild radish, Raphanus raphanistrum), windgrass (Apera spica-venti), Russian thistle (Salsola kali), barley, winter (winter barley, Hordeum vulgare), and wheat, winter (winter wheat, Triticum aestivum) were planted into a silt loam soil and treated preemergence with test chemicals formulated in a non-phytotoxic solvent mixture which included a surfactant.
At the same time, these species were planted in pots containing Redi-Earth® planting medium (Scotts Company, 14111 Scottslawn Road, Marysville, Ohio 43041) comprising spaghnum peat moss, vermiculite, wetting agent and starter nutrients and treated with postemergence applications of the test chemicals formulated in the same manner. Plants ranged in height from 2 to 18 cm (1- to 4-leaf stage). Treated plants and controls were maintained in a controlled growth environment for 14 to 21 days after which time all species were compared to controls and visually evaluated. Plant response ratings, summarized in Table D, are based on a scale of 0 to 100 where 0 is no effect and 100 is complete control. A dash (-) response means no test result.

common ragweed [1] = assay: Test A postemergence; type: in vivo, Ambrosia elation
Summary of the method: (§3)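 Growth medium: loam soil blended with sand. Preemergence treatment used a directed soil spray right after planting; postemergence treatment targeted seedlings at one to two leaves (2–10 cm height). Response was judged by eye relative to untreated plants about 10 days later on a 0–100 control scale.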

common ragweed [2] = assay: Test A preemergence; type: in vivo, Ambrosia elation
Summary of the method: as §3

[3] = postemergence, 250 g ai/ha, scale 0 to 100 (0 no effect, 100 complete control)
[4] = postemergence, 62 g ai/ha, scale 0 to 100, 0 no effect, 100 complete control
[5] = postemergence, 125 g ai/ha, scale 0 to 100, 0 no effect, 100 complete control
[6] = Postemergence, 500 g ai/ha, 0 to 100 scale (0 no effect, 100 complete control)
[7] = postemergence, 125 g ai/ha, about 10 days, visual rating on 0 to 100 scale (0 no effect, 100 complete control)
[8] = 125 g ai/ha, visual injury, 0 to 100 scale, approx. 10 days
[9] = 500 g ai/ha, visual injury after approx. 10 days, 0 to 100 scale (0 no effect, 100 complete control)

Compound	Bromegrass, Downy plant response rating (bromegrass, downy; Postemergence, 31 g ai/ha)	Plant response rating, Bromegrass, Downy (bromegrass, downy; [3])	Plant response rating, Bromegrass, Downy (bromegrass, downy; [5])	Cupgrass, Woolly plant response rating (cupgrass, woolly; Postemergence, 31 g ai/ha)	Plant response rating, Cupgrass, Woolly (cupgrass, woolly; [3])	Plant response rating, Cupgrass, Woolly (cupgrass, woolly; [5])	Goosegrass plant response rating (goosegrass; Postemergence, 31 g ai/ha)	Plant response rating, Goosegrass (goosegrass; [3])	Plant response rating, Goosegrass (goosegrass; [5])	Cocklebur plant response rating (cocklebur; Postemergence, 31 g ai/ha)	Plant response rating, Cocklebur (cocklebur; [3])	Plant response rating, Cocklebur (cocklebur; [5])	Common Ragweed plant response rating (common ragweed [1]; [6])	Common Ragweed plant response rating (common ragweed [1]; [7])	Common Ragweed plant response rating (common ragweed [2]; [8])	Common Ragweed plant response rating (common ragweed [2]; [9])	further results
CCc1cc(C(=O)NCC(F)(F)F)nn1Cc1cccc(OC(F)(F)F)c1 [Compound 20]	0	10	5	5	15	15	0	15	5	20	40	35					Plant response rating, Bromegrass, Downy (bromegrass, downy; [4]): 0; Plant response rating, Cupgrass, Woolly (cupgrass, woolly; [4]): 10; Plant response rating, Goosegrass (goosegrass; [4]): 5; Plant response rating, Barley (barley; 62 g ai/ha): 20; Plant response rating, Cocklebur (cocklebur; [4]): 35
CCCNC(=O)c1cc(CC)n(Cc2cccc(OC(F)(F)F)c2)n1 [Compound 27]	0	10	5	0	20	10	0	10	0	20	40	35					Plant response rating, Bromegrass, Downy (bromegrass, downy; [4]): 5; Plant response rating, Cupgrass, Woolly (cupgrass, woolly; [4]): 5; Plant response rating, Goosegrass (goosegrass; [4]): 0; Plant response rating, Barley (barley; 62 g ai/ha): 20; Plant response rating, Cocklebur (cocklebur; [4]): 25
CCc1cc(C(=O)NOC(C)C)nn1Cc1cccc(OC(F)(F)F)c1 [Compound 70]	0	5	5	0	20	15	5	15	10	10	45	20					Plant response rating, Bromegrass, Downy (bromegrass, downy; [4]): 0; Plant response rating, Cupgrass, Woolly (cupgrass, woolly; [4]): 0; Plant response rating (scale 0 to 100), Russian Thistle (Russian thistle): 0; Plant response rating, Russian Thistle (Russian thistle; 31 g ai/ha): 0; Plant response rating, Russian Thistle (Russian thistle; 62 g ai/ha): 90; Plant response rating, Russian Thistle (Russian thistle; 125 g ai/ha): 90; Plant response rating, Russian Thistle (Russian thistle; 250 g ai/ha): 100; Plant response rating, Goosegrass (goosegrass; [4]): 5; Plant response rating, Barley (barley; 62 g ai/ha): 5; Plant response rating, Barley (barley; 125 g ai/ha): 10; Plant response rating, Cocklebur (cocklebur; [4]): 15
CCONC(=O)c1cc(CC)n(Cc2cccc(OC(F)(F)F)c2)n1 [Compound 72]	5	15	15	5	15	10	0	5	0	0	15	5					Bromegrass, Downy plant response rating (bromegrass, downy; postemergence, 62 g ai/ha): 5; Cupgrass, Woolly plant response rating (cupgrass, woolly; postemergence, 62 g ai/ha): 10; Goosegrass plant response rating (goosegrass; postemergence, 62 g ai/ha): 0; Plant response rating, Barley (barley; 125 g ai/ha): 5; Cocklebur plant response rating (cocklebur; postemergence, 62 g ai/ha): 0
Cc1cc(C(=O)NCC(F)(F)F)nn1Cc1ccnc(C(F)(F)F)c1 [Compound 74]	0	0	0	5	20	15	5	10	5	20	55	50					Bromegrass, Downy plant response rating (bromegrass, downy; postemergence, 62 g ai/ha): 0; Cupgrass, Woolly plant response rating (cupgrass, woolly; postemergence, 62 g ai/ha): 10; Plant response rating, Russian Thistle (Russian thistle; 31 g ai/ha): 70; Plant response rating, Russian Thistle (Russian thistle; 62 g ai/ha): 85; Plant response rating, Russian Thistle (Russian thistle; 125 g ai/ha): 95; Goosegrass plant response rating (goosegrass; postemergence, 62 g ai/ha): 5; Plant response rating, Barley (barley; 125 g ai/ha): 0; Cocklebur plant response rating (cocklebur; postemergence, 62 g ai/ha): 20
CCc1cc(C(=O)NC2CC2)nn1Cc1ccnc(C(F)(F)F)c1 [Compound 76]																	Plant response rating (scale 0 to 100), Russian Thistle (Russian thistle): 50; Plant response rating, Russian Thistle (Russian thistle; 31 g ai/ha): 65; Plant response rating, Russian Thistle (Russian thistle; 62 g ai/ha): 70; Plant response rating, Russian Thistle (Russian thistle; 125 g ai/ha): 80; Plant response rating, Russian Thistle (Russian thistle; 250 g ai/ha): 95
CCc1cc(C(=O)NOC(C)C)nn1Cc1ccnc(OC(F)F)c1 [Compound 126]													80	80	90	100	
CCCc1cc(C(=O)NCC(F)(F)F)nn1Cc1ccnc(OC(F)F)c1 [Compound 127]													80	30	30	90	
CCOc1cc(C(=O)NCC(F)(F)F)nn1Cc1ccnc(OC(F)F)c1 [Compound 128]													70	30	70	90	
CCCNC(=O)c1cc(OCC)n(Cc2ccnc(OC(F)F)c2)n1 [Compound 136]													100	30	70	80	
CCCc1cc(C(=O)NC2CC2)nn1Cc1ccnc(OC(F)F)c1 [Compound 205]													90	80		100	Common Ragweed plant response rating (0 to 100 scale) (common ragweed [2]; 125 g ai/ha, visual injury approx. 10 days after treatment): 70
